Reference: PubChem BioAssay (NCI)
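Interpolation was linear, between the two tested concentrations surrounding the appropriate level; five concentrations were tested over 48 hours in 96-well plates. Definition used: TGI = concentration required for complete inhibition of growth.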

How the values were obtained:
Assay in all cases: DTP human tumour cell line panel, 48 h
786-0 renal = tested on: 786-0 renal
A498 renal = tested on: A498 renal
A549 NSCLC = tested on: A549 NSCLC
ACHN renal = tested on: ACHN renal
BT-549 breast = tested on: BT-549 breast
CAKI-1 renal = tested on: CAKI-1 renal
CCRF-CEM leukemia = tested on: CCRF-CEM leukemia
COLO 205 colon = tested on: COLO 205 colon
DU-145 prostate = tested on: DU-145 prostate
EKVX NSCLC = tested on: EKVX NSCLC
HCT-116 colon = tested on: HCT-116 colon
HCT-15 colon = tested on: HCT-15 colon
HL-60(TB) leukemia = tested on: HL-60(TB) leukemia
HOP-62 NSCLC = tested on: HOP-62 NSCLC
HOP-92 NSCLC = tested on: HOP-92 NSCLC
HS 578T breast = tested on: HS 578T breast
HT29 colon = tested on: HT29 colon
IGROV1 ovarian = tested on: IGROV1 ovarian
K-562 leukemia = tested on: K-562 leukemia
KM12 colon = tested on: KM12 colon
LOX IMVI melanoma = tested on: LOX IMVI melanoma
M14 melanoma = tested on: M14 melanoma
MALME-3M melanoma = tested on: MALME-3M melanoma
MCF7 breast = tested on: MCF7 breast
MDA-MB-231 breast = tested on: MDA-MB-231 breast
MDA-MB-435 = tested on: MDA-MB-435
MDA-N = tested on: MDA-N
MOLT-4 leukemia = tested on: MOLT-4 leukemia
NCI-H226 lung = tested on: NCI-H226 lung
NCI-H23 lung = tested on: NCI-H23 lung
NCI-H460 lung = tested on: NCI-H460 lung
NCI-H522 lung = tested on: NCI-H522 lung
NCI/ADR-RES ovarian = tested on: NCI/ADR-RES ovarian
OVCAR-3 ovarian = tested on: OVCAR-3 ovarian
OVCAR-4 ovarian = tested on: OVCAR-4 ovarian
OVCAR-5 ovarian = tested on: OVCAR-5 ovarian
OVCAR-8 ovarian = tested on: OVCAR-8 ovarian
PC-3 prostate = tested on: PC-3 prostate
RPMI-8226 leukemia = tested on: RPMI-8226 leukemia
RXF 393 renal = tested on: RXF 393 renal
SF-268 CNS = tested on: SF-268 CNS
SF-295 CNS = tested on: SF-295 CNS
SF-539 CNS = tested on: SF-539 CNS
SK-MEL-2 melanoma = tested on: SK-MEL-2 melanoma
SK-MEL-28 melanoma = tested on: SK-MEL-28 melanoma
SK-MEL-5 melanoma = tested on: SK-MEL-5 melanoma
SK-OV-3 ovarian = tested on: SK-OV-3 ovarian
SN12C renal = tested on: SN12C renal
SNB-19 CNS = tested on: SNB-19 CNS
SNB-75 CNS = tested on: SNB-75 CNS
SR leukemia = tested on: SR leukemia
SW-620 colon = tested on: SW-620 colon
T-47D breast = tested on: T-47D breast
TK-10 renal = tested on: TK-10 renal
U251 CNS = tested on: U251 CNS
UACC-257 melanoma = tested on: UACC-257 melanoma
UACC-62 melanoma = tested on: UACC-62 melanoma
UO-31 renal = tested on: UO-31 renal
HCC-2998 colon = tested on: HCC-2998 colon

For O=C(O)COc1c(Cl)cc(Cl)c2cccnc12, the TGI (786-0 renal) was greater than 100 µM, the TGI (A498 renal) was greater than 100 µM and the TGI (A549 NSCLC) was greater than 100 µM. It also gave a TGI (ACHN renal) greater than 100 µM, a TGI (BT-549 breast) greater than 100 µM and a TGI (CAKI-1 renal) greater than 100 µM. The TGI (CCRF-CEM leukemia) was greater than 100 µM, the TGI (COLO 205 colon) was greater than 100 µM and the TGI (DU-145 prostate) was greater than 100 µM. The TGI (EKVX NSCLC) was greater than 100 µM, the TGI (HCT-116 colon) was greater than 100 µM and the TGI (HCT-15 colon) was greater than 100 µM. It also gave a TGI (HL-60(TB) leukemia) greater than 100 µM, a TGI (HOP-62 NSCLC) greater than 100 µM and a TGI (HOP-92 NSCLC) greater than 100 µM. It also gave a TGI (HS 578T breast) greater than 100 µM, a TGI (HT29 colon) greater than 100 µM and a TGI (IGROV1 ovarian) greater than 100 µM. It also gave a TGI (K-562 leukemia) greater than 100 µM, a TGI (KM12 colon) greater than 100 µM and a TGI (LOX IMVI melanoma) greater than 100 µM. It also gave a TGI (M14 melanoma) greater than 100 µM, a TGI (MALME-3M melanoma) greater than 100 µM and a TGI (MCF7 breast) greater than 100 µM. The TGI (MDA-MB-231 breast) was greater than 100 µM, the TGI (MDA-MB-435) was greater than 100 µM and the TGI (MDA-N) was greater than 100 µM. For the same molecule, the TGI (MOLT-4 leukemia) was greater than 100 µM, the TGI (NCI-H226 lung) was greater than 100 µM and the TGI (NCI-H23 lung) was greater than 100 µM. It also gave a TGI (NCI-H460 lung) greater than 100 µM, a TGI (NCI-H522 lung) greater than 100 µM and a TGI (NCI/ADR-RES ovarian) greater than 100 µM. It also gave a TGI (OVCAR-3 ovarian) greater than 100 µM, a TGI (OVCAR-4 ovarian) greater than 100 µM and a TGI (OVCAR-5 ovarian) greater than 100 µM. It also gave a TGI (OVCAR-8 ovarian) greater than 100 µM, a TGI (PC-3 prostate) greater than 100 µM and a TGI (RPMI-8226 leukemia) greater than 100 µM. The TGI (RXF 393 renal) was greater than 100 µM, the TGI (SF-268 CNS) was greater than 100 µM and the TGI (SF-295 CNS) was greater than 100 µM. It also gave a TGI (SF-539 CNS) greater than 100 µM, a TGI (SK-MEL-2 melanoma) greater than 100 µM and a TGI (SK-MEL-28 melanoma) greater than 100 µM. The TGI (SK-MEL-5 melanoma) was greater than 100 µM, the TGI (SK-OV-3 ovarian) was greater than 100 µM and the TGI (SN12C renal) was greater than 100 µM. For the same molecule, the TGI (SNB-19 CNS) was greater than 100 µM, the TGI (SNB-75 CNS) was greater than 100 µM and the TGI (SR leukemia) was greater than 100 µM. It also gave a TGI (SW-620 colon) greater than 100 µM, a TGI (T-47D breast) greater than 100 µM and a TGI (TK-10 renal) greater than 100 µM. For the same molecule, the TGI (U251 CNS) was greater than 100 µM, the TGI (UACC-257 melanoma) was greater than 100 µM and the TGI (UACC-62 melanoma) was greater than 100 µM. It also gave a TGI (UO-31 renal) greater than 100 µM.
With C/C(=C/CC[C@]1(CO)CC[C@]2(CO)[C@H](CC[C@@H]3[C@@]4(C)CC[C@H](OC5OCC(O)C(O)C5OC5OC(CO)C(O)C(O)C5O)C(C)(C)[C@@H]4CC[C@]32C)[C@H]1O)CO (stereo partly drawn) the TGI (786-0 renal) was greater than 100 µM, the TGI (A498 renal) was greater than 100 µM and the TGI (A549 NSCLC) was greater than 100 µM. The TGI (ACHN renal) was greater than 100 µM, the TGI (BT-549 breast) was greater than 100 µM and the TGI (CAKI-1 renal) was greater than 100 µM. It also gave a TGI (CCRF-CEM leukemia) greater than 100 µM, a TGI (COLO 205 colon) greater than 100 µM and a TGI (DU-145 prostate) greater than 100 µM. For the same molecule, the TGI (EKVX NSCLC) was greater than 100 µM, the TGI (HCT-116 colon) was greater than 100 µM and the TGI (HL-60(TB) leukemia) was greater than 100 µM. For the same molecule, the TGI (HOP-62 NSCLC) was greater than 100 µM, the TGI (HOP-92 NSCLC) was greater than 100 µM and the TGI (HS 578T breast) was greater than 100 µM. It also gave a TGI (HT29 colon) greater than 100 µM, a TGI (IGROV1 ovarian) greater than 100 µM and a TGI (K-562 leukemia) greater than 100 µM. For the same molecule, the TGI (KM12 colon) was greater than 100 µM, the TGI (LOX IMVI melanoma) was greater than 100 µM and the TGI (M14 melanoma) was greater than 100 µM. The TGI (MALME-3M melanoma) was greater than 100 µM, the TGI (MCF7 breast) was greater than 100 µM and the TGI (MDA-MB-231 breast) was greater than 100 µM. For the same molecule, the TGI (MDA-MB-435) was greater than 100 µM, the TGI (MDA-N) was greater than 100 µM and the TGI (MOLT-4 leukemia) was greater than 100 µM. The TGI (NCI-H226 lung) was greater than 100 µM, the TGI (NCI-H23 lung) was greater than 100 µM and the TGI (NCI-H460 lung) was greater than 100 µM. The TGI (NCI-H522 lung) was greater than 100 µM, the TGI (NCI/ADR-RES ovarian) was greater than 100 µM and the TGI (OVCAR-3 ovarian) was greater than 100 µM. For the same molecule, the TGI (OVCAR-4 ovarian) was greater than 100 µM, the TGI (OVCAR-5 ovarian) was greater than 100 µM and the TGI (OVCAR-8 ovarian) was greater than 100 µM. For the same molecule, the TGI (PC-3 prostate) was greater than 100 µM, the TGI (RPMI-8226 leukemia) was greater than 100 µM and the TGI (RXF 393 renal) was greater than 100 µM. For the same molecule, the TGI (SF-268 CNS) was greater than 100 µM, the TGI (SF-295 CNS) was greater than 100 µM and the TGI (SF-539 CNS) was greater than 100 µM. It also gave a TGI (SK-MEL-28 melanoma) greater than 100 µM, a TGI (SK-MEL-5 melanoma) greater than 100 µM and a TGI (SK-OV-3 ovarian) greater than 100 µM. It also gave a TGI (SN12C renal) greater than 100 µM, a TGI (SNB-19 CNS) greater than 100 µM and a TGI (SNB-75 CNS) greater than 100 µM. It also gave a TGI (SR leukemia) greater than 100 µM, a TGI (SW-620 colon) greater than 100 µM and a TGI (T-47D breast) greater than 100 µM. It also gave a TGI (TK-10 renal) greater than 100 µM, a TGI (U251 CNS) greater than 100 µM and a TGI (UACC-257 melanoma) greater than 100 µM. For the same molecule, the TGI (UACC-62 melanoma) was greater than 100 µM and the TGI (UO-31 renal) was greater than 100 µM.
With Cc1cc(O)c(C(C)C)cc1C1(c2cc(C(C)C)c(O)cc2C)OC(=O)c2ccccc21 the TGI (786-0 renal) was 5.52 µM, the TGI (A498 renal) was 7.1 µM and the TGI (A549 NSCLC) was 12.8 µM. For the same molecule, the TGI (ACHN renal) was 8.99 µM, the TGI (BT-549 breast) was 5.53 µM and the TGI (CAKI-1 renal) was 18.4 µM. The TGI (CCRF-CEM leukemia) was 3.1 µM, the TGI (COLO 205 colon) was 4.96 µM and the TGI (DU-145 prostate) was 4.41 µM. The TGI (EKVX NSCLC) was 9.25 µM, the TGI (HCC-2998 colon) was 3.48 µM and the TGI (HCT-116 colon) was 3.09 µM. For the same molecule, the TGI (HCT-15 colon) was 4.93 µM, the TGI (HL-60(TB) leukemia) was 1.24 µM and the TGI (HOP-62 NSCLC) was 8.75 µM. It also gave a TGI (HOP-92 NSCLC) of 7.78 µM, a TGI (HS 578T breast) of 6.88 µM and a TGI (HT29 colon) of 5.84 µM. The TGI (IGROV1 ovarian) was 8.89 µM, the TGI (K-562 leukemia) was 3.25 µM and the TGI (KM12 colon) was 3.33 µM. It also gave a TGI (LOX IMVI melanoma) of 3.53 µM, a TGI (M14 melanoma) of 3.15 µM and a TGI (MALME-3M melanoma) of 5.21 µM. The TGI (MCF7 breast) was 3.6 µM, the TGI (MDA-MB-231 breast) was 4.54 µM and the TGI (MDA-MB-435) was 3.01 µM. For the same molecule, the TGI (MDA-N) was 3.11 µM, the TGI (MOLT-4 leukemia) was 3.38 µM and the TGI (NCI-H226 lung) was 6.3 µM. For the same molecule, the TGI (NCI-H23 lung) was 5.13 µM, the TGI (NCI-H460 lung) was 3.99 µM and the TGI (NCI-H522 lung) was 4.48 µM. The TGI (NCI/ADR-RES ovarian) was 12 µM, the TGI (OVCAR-3 ovarian) was 4.85 µM and the TGI (OVCAR-4 ovarian) was 5.26 µM. For the same molecule, the TGI (OVCAR-5 ovarian) was 5.92 µM, the TGI (OVCAR-8 ovarian) was 9.14 µM and the TGI (PC-3 prostate) was 4.95 µM. For the same molecule, the TGI (RPMI-8226 leukemia) was 3.17 µM, the TGI (RXF 393 renal) was 3.02 µM and the TGI (SF-268 CNS) was 4.83 µM. For the same molecule, the TGI (SF-295 CNS) was 3.69 µM, the TGI (SF-539 CNS) was 3.72 µM and the TGI (SK-MEL-2 melanoma) was 3.28 µM. It also gave a TGI (SK-MEL-28 melanoma) of 3.07 µM, a TGI (SK-MEL-5 melanoma) of 2.99 µM and a TGI (SK-OV-3 ovarian) greater than 33.3 µM. It also gave a TGI (SN12C renal) of 4.35 µM, a TGI (SNB-19 CNS) greater than 35.1 µM and a TGI (SNB-75 CNS) of 6.16 µM. For the same molecule, the TGI (SR leukemia) was 4.02 µM, the TGI (SW-620 colon) was 4.57 µM and the TGI (T-47D breast) was 6.44 µM. The TGI (TK-10 renal) was 11.1 µM, the TGI (U251 CNS) was 3.9 µM and the TGI (UACC-257 melanoma) was 3.6 µM. For the same molecule, the TGI (UACC-62 melanoma) was 2.87 µM and the TGI (UO-31 renal) was 7.04 µM.
